# Measurements: patent US8318950B2, “N-acyl amino acid derivatives, a method for the preparation thereof, a pharmaceutical composition and use thereof as anti-allergic, anti-inflammatory and hypolipidemic agents” (Otkrytoe Aktsionernoe Obschestvo-Otechestvennye Lekarstva, priority 2005, dated 2012)
# Columns and labels:
# [1] = tested on: guinea pig blood basophils; assay: In vitro ovalbumin (OA)-induced blood basophil degranulation of immunized guinea pig; type: cell-based; conditions: for inhibition at 1000 µM / inhibition at 100 µM / inhibition at 10 µM: Cavia porcellus, read-out: Complete degranulation inhibition (CDI)
# Protocol: Leukocytes from guinea pig blood were isolated according to the Freemel's method [Immunologicheskiye Metody under edition of G. Frimel/Moscow., “Meditsina” publishers, 1987, p. 222 in the inventor's modification].
# Guinea pigs of both sexes weighing from 600 to 800 g were used to conduct the test. The animals were once immunized with a mixture of 10 μg ovalbumin and 100 mg aluminum hydroxide per one animal according to Andersson [Anderson P. Antigen-induced bronchial anaphylaxis in actively sensitized guinea-pigs.//Allergy. 1980. Vol. 35. P. 63-71].
# Under ester anesthesia, 15 ml blood were drawn from guinea pig heart. Double precipitation of cells using EDTA and a citrate-containing precipitating liquid was used to isolate basophils in the leukocyte suspension.
# Blood was mixed with 5% EDTA.Na2 2H2O (“Sigma”) solution at 9:1 ratio and in 30 minutes it was subjected to mild centrifugation (for 12 minutes at 80 g). Supernatant was collected and centrifuged for 15 minutes at 500 g.
# To the remaining cells, a citrate-containing precipitating liquid (3) was added at proportion 3:10 (it was thermostated at 37° C. for 30 minutes). A supernatant fraction enriched by leukocytes was centrifuged for 7 minutes at 100 g. To leukocyte precipitate, 0.85% NaCl solution was added and cellular concentration was brought to 30×10^3 μl.
# Protocol of the in vitro basophil degranulation test [Spravochnil po klinicheskim laboratomym metodam issledovaniya (A reference book on clinical-laboratory examination methods)/Edited by E. A. Cost/Moscow, “Meditsina” publishers, 1975, p. 130].
# For the test, a centrifuge tube (3 tubes per each sample) was filled with 300 μl cellular suspension, then salt solution of a tested compound (or a salt solution in the control of spontaneous and maximum degranulation) was added and pre-incubated at 37° C. for 15 minutes, then into each tube 300 μl 1% OA solution was added (in the control of spontaneous degranulation a salt solution in the same amount was added) and once more pre-incubated at 37° C. for 10 minutes. Functional leukocyte concentration was 10^4/μl. Samples (100 μl) were taken off from each tube into separate tubes to assess a complete basophil degranulation, and to the remained cells, a cooled salt solution was added (5 ml into each tube) to arrest degranulation reaction, then the tubes were centrifuged for 7 min at 100 g, and from precipitate, preparations for microscopy were prepared. The preparations were fixed and stained according to the method of Seder et al. [Seder R. A. et al. Mouse splenic and bone marrow cell populations that express high—affinity Fcε receptors and produce interleukin-4 are highly enriched in basophils.//Proc. Natl. Acad. USA, 1991, V. 88, P. 2835-2839].
# In order to detect a specific basophil granulation, the dye 0.5% alcyanic blue (pH 1.0) was used, nuclei were additionally stained with safranin (0.1% solution in 1% acetic acid). The preparations were used to assess a total degranulation inhibition.
# A total degranulation inhibition (DI) (%) was calculated according to the formula: […]
# max—% of degranulated basophils at the maximum degranulation (OA)
# spontaneous—% of degranulated basophils in spontaneous degranulation (control)
# experimental—% of degranulated basophils following exposure to the tested compound.
# Assessment of a Complete Basophil Degranulation
# Samples selected following basophil degranulation test (100 μl each) were poured into tubes with the dye (0.5% alcyane blue, pH 1.0) at ratio 1:1. Staining was carried out at room temperature for not less than 50 min. Stained basophils were calculated using the Fooks-Rosenthal chamber. Inhibition of a complete basophil degranulation (ICD) was calculated according to the formula: ICD(%)=1−[(Mm(c)−Mm(exper.)]/Mm(c)−Mm(OA)]×100, wherein
# M m (c)—mean (by three samples) basophil number in the spontaneous basophil degranulation test
# M±m (OA)—mean (by three samples) basophil number in the maximum antigen-induced basophil degranulation test; […]
# [2] = tested on: endogenous hypercholesterolemia in guinea pigs; assay: Model of endogenous hypercholesterolemia in guinea pigs (fat loading); type: in vivo, guinea pig; parameters: Serum total cholesterol / Serum total triglyceride levels: unit not given here; conditions: for Serum total cholesterol / Serum total triglyceride levels: fat loading + compound 500 μg/kg orally
# Protocol: The study was carried out on male guinea pigs (Aguti line) weighing 304±25 g. The experiment lasted 31 days. The control group included 6 guinea pigs (intact animals). The compounds studied were administered from day 1 of the experiment (from day 1 of administering fat loading).
# The animals of experimental groups received orally for 31 days a compound studied and fat loading. The compound studied at doses indicated below was administered in the form of an aqueous solution (0.5 ml per an animal); fat loading (a mixture of porcine fat and preliminary heated corn oil at 4:1 ratio by volume, at the rate of 5 ml/kg weight 0.5 h post administering the substance studied.
# 1) “control”—intact animals;
# 2) “fat”—animals that received fat loading only
# 3) “compound IV”—animals that received fat loading+compound IV at dose 500 μg/kg body weight;
# 4) “compound V”—animals that received fat loading+compound V at dose 500 μg/kg body weight.
# Statistical processing was carried out using a mono-factorial analysis of variance.
# [3] = tested on: antigen-induced bronchial spasm; conditions: oral and intratracheal route, 50 μg/kg; cited from earlier work
# [4] = tested on: animals with atherogenic loading; conditions: WO 99/01103, similar biological experiment; cited from earlier work
# [5] = tested on: delayed type hypersensitivity; conditions: doses 50 and 500 μg/kg; cited from earlier work
# [6] = tested on: passive cutaneous anaphylaxis; conditions: in vivo; cited from earlier work
# [7] = tested on: carrageenan-induced rat paw edema; assay: Carrageenan rat paw edema; type: in vivo; conditions: 1% gel applied on the paw three times; paw volume 4 hours post carrageenan
# Protocol: The experiments were performed on white outbred male rats weighing 250 g. A total amount of animals per an experiment was 12.
# The model of carrageenan-induced edema seconding to the method of Winter et al. was used (Winter et al. Studies of the mediators of the acute inflammatory response induced in rats in different sites by carrageenan and turpentine.//J. Phamacol. 1971. V. 104. P. 15-29). 0.1 ml 1% carrageenan solution (SERVA) was subplantarly injected into the right rat paw. The animals were placed into individual chambers. Gel (1%) comprising a substance tested was applied on the paw three times: immediately following carrageenan administration, ate 1 and 2 hours post administration. 4 hours post administration of carrageenan, paw volumes were measured using a plethysmograph (Ugo Basile) Therapeutic effect of the gel was assessed by inhibition degree of inflammatory reaction in comparison with the intact left paw of the given animal and rat paw reaction of the control (untreated) group inflammatory reaction inhibition expressed in percent, was calculated according to the formula: […]
# [8] = day 31, blood serum, 500 μg/kg orally (Table 24)
# [9] = day 31, blood serum, 500 μg/kg orally (Table 25)
compound,measurement,setting,value
"O=C(O)CCC(=O)N[C@@H](Cc1c[nH]cn1)C(=O)O [Compound V, N^α-succinyl-L-histidine]",Number of completely degranulated basophils,[1]; 10^−3 M,35.3 ± 7.29%
same,Number of completely degranulated basophils,[1]; 10^−4 M,31.2 ± 6.8%
same,Number of completely degranulated basophils,[1]; 10^−5 M,24.6 ± 10.38%
same,inhibition at 1000 µM,[1]; 10^−3 M,10.6 ± 7.6%
same,inhibition at 100 µM,[1]; 10^−4 M,18.9 ± 11.8%
same,inhibition at 10 µM,[1]; 10^−5 M,44 ± 11.3%
same,Serum total cholesterol,[2]; Day 28,52.9 ± 6.5
same,Serum total triglyceride levels,[2]; Day 28,62.3 ± 5.4
same,Serum total cholesterol,[2]; Day 31,46.3 ± 4.1
same,Serum total triglyceride levels,[2]; Day 31,56.0 ± 6.1
same,lowered LDL cholesterol,[2]; by day 31 of the experiment,38%
same,lowered total cholesterol level,[2]; by day 31 of the experiment,37.8%
same,"Cholesterol, LDL",[2]; [8],41.9 ± 2.7 mg/100 ml
same,"Cholesterol, Total",[2]; [8],46.3 ± 4.1 mg/100 ml
same,"Cholesterol, VLDL",[2]; [8],2.1 ± 0.4 mg/100 ml
same,"Triglycerides, LDL",[2]; [9],23.1 ± 1.9 mg/100 ml
same,"Triglycerides, Total",[2]; [9],56 ± 6.1 mg/100 ml
same,"Triglycerides, VLDL",[2]; [9],22.5 ± 4.4 mg/100 ml
"O=C(O)CCCC(=O)NCCc1cnc[nH]1 [Glutaryl histamine, glutaryl histamine, reference compound]",Complete degranulation inhibition (CDI),[1]; 10^−3 M,9.3 ± 5.5%
same,Number of completely degranulated basophils,[1]; 10^−3 M,31.6 ± 6.33%
same,Complete degranulation inhibition (CDI),[1]; 10^−4 M,24.1 ± 1.1%
same,Number of completely degranulated basophils,[1]; 10^−4 M,25.3 ± 3.38%
same,Complete degranulation inhibition (CDI),[1]; 10^−5 M,0%
same,Number of completely degranulated basophils,[1]; 10^−5 M,29.8 ± 6.73%
same,Decrease in bronchial spasm value as compared to the control,[3],> 50%
same,lowering total cholesterol level,[4],9%
same,intensity of delayed type hypersensitivity,[5],significantly lower intensity
same,manifestations of passive cutaneous anaphylaxis,[6],capable of lowering manifestations
"C[C@]12CCC(=O)C=C1CC[C@@H]1[C@@H]2[C@@H](O)C[C@@]2(C)[C@H]1CC[C@]2(O)C(=O)CO [Hydrocortisone, reference compound]",Number of completely degranulated basophils,[1]; 10^−3 M,10.0 ± 0.7%
same,Number of completely degranulated basophils,[1]; 10^−4 M,17.3 ± 0.9%
same,Number of completely degranulated basophils,[1]; 10^−5 M,20.0 ± 1.3%
same,inhibition at 1000 µM,[1]; 10^−3 M,71 ± 1.6%
same,inhibition at 100 µM,[1]; 10^−4 M,48 ± 0.8%
same,inhibition at 10 µM,[1]; 10^−5 M,40 ± 0.6%
"COC(=O)[C@H](Cc1c[nH]cn1)NC(=O)CCC(=O)O [VI, N^α-succinyl-L-histidine methyl ester]",inhibition of edema,[7],44%
"COC(=O)[C@H](Cc1c[nH]c2ccccc12)NC(=O)CCCC(=O)O [XIII, N^α-glutaryl-L-tryptophane methyl ester]",inhibition of edema,[7],40%
"O=C(O)Cc1ccccc1Nc1c(Cl)cccc1Cl [diclofenac, reference compound]",inhibition of edema,[7],62%
